Measurements: publication PMC4116439 (ChemMedChem, 2014)
Where a chain is given by its changes, count along the chain named.

Assays:
human M1 = target: T1, human M1 (Homo sapiens, UniProt P11229); conditions: read-out: hM1 IC50; printed as hM1-M4; cited from earlier work
T1 sequence (P11229 1-460): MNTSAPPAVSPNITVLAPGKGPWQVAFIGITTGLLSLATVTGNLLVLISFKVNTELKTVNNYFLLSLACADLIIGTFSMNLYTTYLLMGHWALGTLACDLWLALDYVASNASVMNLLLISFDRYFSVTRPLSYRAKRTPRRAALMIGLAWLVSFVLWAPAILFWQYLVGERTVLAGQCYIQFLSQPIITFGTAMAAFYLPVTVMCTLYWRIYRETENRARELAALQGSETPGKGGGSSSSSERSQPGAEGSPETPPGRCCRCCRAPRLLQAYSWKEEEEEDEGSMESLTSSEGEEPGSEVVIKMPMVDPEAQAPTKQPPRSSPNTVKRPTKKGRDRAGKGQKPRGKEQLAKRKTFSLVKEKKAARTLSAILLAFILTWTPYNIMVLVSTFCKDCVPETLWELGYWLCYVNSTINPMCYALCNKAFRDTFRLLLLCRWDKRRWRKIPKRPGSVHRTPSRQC

human M2 = target: T2, human M2 (Homo sapiens, UniProt P08172); conditions: read-out: hM2 IC50; printed as hM1-M4; cited from earlier work
T2 sequence (P08172 1-466): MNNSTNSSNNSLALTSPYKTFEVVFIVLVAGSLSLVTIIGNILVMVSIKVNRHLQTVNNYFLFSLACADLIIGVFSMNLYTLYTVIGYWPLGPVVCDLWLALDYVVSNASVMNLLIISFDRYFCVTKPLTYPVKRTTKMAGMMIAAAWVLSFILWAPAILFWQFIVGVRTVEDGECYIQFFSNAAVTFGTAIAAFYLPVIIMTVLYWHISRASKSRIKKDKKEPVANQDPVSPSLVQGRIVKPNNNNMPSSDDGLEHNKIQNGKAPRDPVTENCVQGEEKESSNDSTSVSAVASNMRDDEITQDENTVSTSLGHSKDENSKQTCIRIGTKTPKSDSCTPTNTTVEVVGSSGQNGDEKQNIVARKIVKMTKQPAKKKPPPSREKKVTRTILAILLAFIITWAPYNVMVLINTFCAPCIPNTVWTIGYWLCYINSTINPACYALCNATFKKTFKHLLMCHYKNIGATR

human M3 = human M3 (Homo sapiens, UniProt P20309); conditions: read-out: hM3 IC50; printed as hM1-M4; cited from earlier work
Chain of human M3 (P20309 whole entry): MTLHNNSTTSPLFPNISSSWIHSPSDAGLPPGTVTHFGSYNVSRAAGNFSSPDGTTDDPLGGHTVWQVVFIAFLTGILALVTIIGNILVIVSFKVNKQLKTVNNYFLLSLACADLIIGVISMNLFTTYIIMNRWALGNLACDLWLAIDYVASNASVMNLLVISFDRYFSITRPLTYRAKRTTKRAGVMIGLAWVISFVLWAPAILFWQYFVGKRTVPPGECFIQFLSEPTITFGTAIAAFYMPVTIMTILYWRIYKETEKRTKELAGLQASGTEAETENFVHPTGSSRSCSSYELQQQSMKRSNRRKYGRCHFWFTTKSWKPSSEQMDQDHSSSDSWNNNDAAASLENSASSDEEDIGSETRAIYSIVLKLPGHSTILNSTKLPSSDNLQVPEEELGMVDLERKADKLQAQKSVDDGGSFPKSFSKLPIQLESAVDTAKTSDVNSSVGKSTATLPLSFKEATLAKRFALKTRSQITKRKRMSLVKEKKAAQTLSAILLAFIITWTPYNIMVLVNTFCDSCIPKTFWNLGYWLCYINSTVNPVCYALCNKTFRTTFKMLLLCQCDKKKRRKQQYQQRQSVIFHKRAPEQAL

human M4 = target: T3, human M4 (Homo sapiens, UniProt P08173); conditions: read-out: hM4 IC50; printed as hM1-M4; cited from earlier work
T3 sequence (P08173 1-479): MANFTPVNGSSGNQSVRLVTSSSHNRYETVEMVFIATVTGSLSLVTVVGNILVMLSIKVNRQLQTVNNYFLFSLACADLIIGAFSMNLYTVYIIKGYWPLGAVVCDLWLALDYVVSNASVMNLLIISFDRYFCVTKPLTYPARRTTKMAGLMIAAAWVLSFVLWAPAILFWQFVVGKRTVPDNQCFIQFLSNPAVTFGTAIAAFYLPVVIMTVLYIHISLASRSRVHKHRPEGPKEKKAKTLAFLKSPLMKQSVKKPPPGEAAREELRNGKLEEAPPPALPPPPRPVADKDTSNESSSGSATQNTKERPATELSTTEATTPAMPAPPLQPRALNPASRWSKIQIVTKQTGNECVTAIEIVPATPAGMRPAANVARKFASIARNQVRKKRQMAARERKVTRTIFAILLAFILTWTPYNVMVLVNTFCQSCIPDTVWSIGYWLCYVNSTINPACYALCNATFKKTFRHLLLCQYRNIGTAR

rM1 = target: T4, rM1 (Rattus norvegicus, UniProt P08482); test: rat M1 functional assay; type: cell-based; conditions: read-out: rM1 IC50, printed as rM1-rM4
T4 sequence (P08482 1-460): T1 sequence (P11229 1-460) with A5V, T254S, P309S, R320K, A337G, I413V

rM2 = target: T5, rM2 (Rattus norvegicus, UniProt P10980); test: rat M2 functional assay; type: cell-based; conditions: read-out: rM2 IC50, printed as rM1-rM4
T5 sequence (P10980 1-466): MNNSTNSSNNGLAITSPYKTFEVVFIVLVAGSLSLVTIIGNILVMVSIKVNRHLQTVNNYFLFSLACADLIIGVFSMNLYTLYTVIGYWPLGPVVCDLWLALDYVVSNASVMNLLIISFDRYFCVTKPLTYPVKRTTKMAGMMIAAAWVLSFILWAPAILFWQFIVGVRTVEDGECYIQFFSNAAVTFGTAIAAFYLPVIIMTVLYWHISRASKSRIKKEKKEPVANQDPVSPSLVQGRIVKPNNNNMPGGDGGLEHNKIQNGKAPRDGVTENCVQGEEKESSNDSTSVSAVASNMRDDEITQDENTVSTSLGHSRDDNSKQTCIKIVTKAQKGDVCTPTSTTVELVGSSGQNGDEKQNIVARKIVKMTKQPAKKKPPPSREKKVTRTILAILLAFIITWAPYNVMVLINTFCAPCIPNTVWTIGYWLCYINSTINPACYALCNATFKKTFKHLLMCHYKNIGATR

rM3 = rM3 (Rattus norvegicus, UniProt P08483); test: rat M3 functional assay; type: cell-based; conditions: read-out: rM3 IC50, printed as rM1-rM4
Chain of rM3 (P08483 whole entry): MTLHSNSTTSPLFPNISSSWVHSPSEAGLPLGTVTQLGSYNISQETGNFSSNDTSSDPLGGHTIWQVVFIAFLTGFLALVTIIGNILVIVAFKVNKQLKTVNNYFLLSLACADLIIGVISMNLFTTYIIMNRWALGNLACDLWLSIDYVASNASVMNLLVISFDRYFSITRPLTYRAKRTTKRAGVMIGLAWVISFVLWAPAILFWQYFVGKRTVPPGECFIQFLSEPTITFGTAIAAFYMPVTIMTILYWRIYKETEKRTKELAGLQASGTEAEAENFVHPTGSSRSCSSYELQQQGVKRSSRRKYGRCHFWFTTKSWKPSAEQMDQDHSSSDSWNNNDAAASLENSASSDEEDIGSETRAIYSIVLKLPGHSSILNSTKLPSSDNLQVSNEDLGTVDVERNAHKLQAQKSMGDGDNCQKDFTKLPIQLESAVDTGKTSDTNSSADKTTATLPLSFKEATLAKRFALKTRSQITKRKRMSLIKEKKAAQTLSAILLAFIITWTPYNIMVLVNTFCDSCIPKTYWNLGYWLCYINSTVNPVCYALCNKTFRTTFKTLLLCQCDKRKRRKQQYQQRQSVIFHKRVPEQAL

rM4 = target: T6, rM4 (Rattus norvegicus, UniProt P08485); test: rat M4 functional assay; type: cell-based; conditions: read-out: rM4 IC50, printed as rM1-rM4
T6 sequence (P08485 1-478): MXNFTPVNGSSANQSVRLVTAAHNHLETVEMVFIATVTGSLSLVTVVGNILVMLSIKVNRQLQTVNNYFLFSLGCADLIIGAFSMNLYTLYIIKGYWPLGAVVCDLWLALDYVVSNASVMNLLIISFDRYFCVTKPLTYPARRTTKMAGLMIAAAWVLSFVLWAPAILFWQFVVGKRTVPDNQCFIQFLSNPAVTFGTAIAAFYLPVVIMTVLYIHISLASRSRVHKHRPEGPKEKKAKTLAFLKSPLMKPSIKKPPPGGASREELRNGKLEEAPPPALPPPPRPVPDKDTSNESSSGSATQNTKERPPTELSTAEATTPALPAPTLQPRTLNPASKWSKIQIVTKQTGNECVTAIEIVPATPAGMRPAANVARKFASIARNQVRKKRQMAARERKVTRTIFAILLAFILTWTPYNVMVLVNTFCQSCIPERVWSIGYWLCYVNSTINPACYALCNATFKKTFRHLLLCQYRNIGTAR

[1] = system: 68 GPCRs, ion channels and transporters; test: Eurofins radioligand binding panel; conditions: 10 μM, 68 targets

Structure (SMILES) | IC50 (human M1) [µM] | IC50 (human M2) [µM] | IC50 (human M3) [µM] | IC50 (human M4) [µM] | IC50 (rM1) [µM] | IC50 (rM2) [µM] | IC50 (rM3) [µM] | IC50 (rM4) [µM] | inhibition in radioligand binding panel [1] [%]
O=C(c1ccc(F)c(F)c1)N1CCN2C(=O)c3ccccc3[C@@]12c1ccc(Cl)cc1 [compound 5] | > 30 | > 30 | > 30 | > 30 | – | – | – | – | –
CC(=O)c1cccc(OCc2cc(C(=O)N(C)[C@@H](C)c3ccccn3)no2)c1 [(S)-16] | – | – | – | – | > 30 | > 30 | > 30 | > 30 | ≤ 50
